Measurements as given in publication PMC9686514, “Design of Antimicrobial Peptides with Cell-Selective Activity and Membrane-Acting Mechanism against Drug-Resistant Bacteria” (Antibiotics, 2022).
Where no end group is shown, it is not given here.

Assays:
Format in all cases: cell-based
[1] = system: HaCaT (human keratinocyte) cells; assay: Cytotoxicity (MTT); settings: 200 µM, 24 h, 37 °C
Method: To examine the cytotoxic effect of peptides, HaCaT (human keratinocyte) cells were sub-cultured in Dulbecco’s modified Eagle medium (DMEM) containing 10% fetal bovine serum, 100 µg/mL streptomycin, and 100 U/mL penicillin at 37 °C in a 5% CO2 chamber. The cells seeded into 4 × 10^3 cells/well were incubated for 24 h. Peptide solutions diluted with DMEM were incubated with cells for 24 h at 37 °C. 3-(4,5-Dimethyl-2-thiazolyl)-2,5-diphenyltetrazolium Bromide (MTT) solution was added to the cells, followed by additional incubation for 4 h. After removing the media, 200 µL of dimethyl sulfoxide was added to the wells. Absorbance of each well was measured at 570 nm using a microtiter reader (Molecular Devices Emax, CA, USA).

[2] = system: rat red blood cells; assay: Hemolysis; settings: 6.25 µM; 8% (v/v) rat RBCs in PBS, 1 h, 37 °C, absorbance 414 nm
Method: Fresh rat erythrocytes were collected and washed by centrifugation at 1000× g for 10 min with PBS. The rat RBCs (8% (v/v)) were added in a two-fold serially diluted peptide with PBS, followed by incubation for 1 h at 37 °C. After centrifugation of samples at 1000× g for 10 min, the supernatants were collected and their absorbance was measured at 414 nm. The 8% RBCs dissolved in PBS and RBCs treated with Triton X-100 were considered as the negative and positive controls, respectively. The hemolysis activity was calculated using the formula, % hemolysis = [(Abssample − Absnegative)/(Abspositive − Absnegative)] × 100 [43, 44].

[3] = system: Escherichia coli (ATCC 25922); settings: ATCC 25922, 24 h, pH 7.2
Excerpt: (§1) Pseudomonas aeruginosa (ATCC 15692), Escherichia coli (ATCC 25922), and Staphylococcus aureus (ATCC 25923) were purchased from the American Type Culture Collection. Listeria monocytogens (KCTC 3710) and Bacillus subtilis (KCTC 1998) were from the Korean Collection for Type Cultures. Drug-resistant S. aureus (DRSa-001~005) and P. aeruginosa (DRPa-001~005) were collected from Paik Hospital of Inje University in Busan, South Korea. Pre-cultured bacteria grown to mid-log phase were suspended in 10 mM sodium phosphate (SP, pH 7.2) or phosphate-buffered saline (PBS, pH 7.2) with 10% culture media. Bacterial suspensions were added to each peptide dilute (final 5 × 10^5 colony-forming units (cfu)/mL), after which the plates were incubated at 37 °C for 24 h. The turbidity of each well was measured at the absorbance at 600 nm and the morphology of bacterial growth was observed under light microscopy. MICs (Minimum inhibitory concentrations) were defined as the lowest concentration of peptide that expresses the complete inhibition of bacterial growth.

[4] = system: Staphylococcus aureus (ATCC 25923); settings: ATCC 25923, 24 h, pH 7.2
Excerpt: as §1

[5] = system: Pseudomonas aeruginosa (ATCC 15692); settings: ATCC 15692, 24 h, pH 7.2
Excerpt: as §1

[6] = system: Bacillus subtilis (KCTC 1998); settings: KCTC 1998, 24 h, pH 7.2
Excerpt: as §1

[7] = system: Listeria monocytogenes (KCTC 3710); settings: KCTC 3710, 24 h, pH 7.2
Excerpt: as §1

Compound	Cell survival [1]	Hemolytic effect [2]	MIC, Ec [3]	MIC, Ec (numbers in parentheses) [3]	MIC, Sa [4]	MIC, Sa (numbers in parentheses) [4]	MIC, Pa [5]	MIC, Pa (numbers in parentheses) [5]	MIC, Bs [6]	MIC, Bs (numbers in parentheses) [6]	MIC, Lm [7]	MIC, Lm (numbers in parentheses) [7]
CC[C@H](C)[C@H](NC(=O)CN)C(=O)NCC(=O)N[C@@H](C)C(=O)N[C@H](C(=O)N[C@@H](CC(C)C)C(=O)N[C@@H](CCCCN)C(=O)N[C@H](C(=O)N[C@@H](CC(C)C)C(=O)N[C@H](C(=O)N[C@H](C(=O)NCC(=O)N[C@@H](CC(C)C)C(=O)N1CCC[C@H]1C(=O)N[C@@H](C)C(=O)N[C@@H](CC(C)C)C(=O)N[C@H](C(=O)N[C@@H](CO)C(=O)N[C@@H](Cc1c[nH]c2ccccc12)C(=O)N[C@H](C(=O)N[C@@H](CCCCN)C(=O)N[C@@H](CCCNC(=N)N)C(=O)N[C@@H](CCCCN)C(=O)N[C@@H](CCCNC(=N)N)C(=O)N[C@@H](CCC(N)=O)C(=O)N[C@@H](CCC(N)=O)C(N)=O)[C@@H](C)CC)[C@@H](C)CC)[C@@H](C)O)[C@@H](C)O)C(C)C)C(C)C [Melittin]	less than 20%	strong hemolytic effect	–	–	–	–	–	–	–	–	–	–
KKIIKKIIKKIWKW-NH2 [KIW-14]	–	–	4(4) μM	4(4) μM	4 µM	8 µM	2(2) μM	2(2) μM	1 µM	2 µM	0.5 µM	1 µM
KKIIKKIWKW-NH2 [KIW-10]	–	–	8 µM	64 µM	16 µM	128 µM	16 µM	64 µM	4 µM	32 µM	4 µM	128 µM
KKIWKKWIKI-NH2 [KWI-10]	–	–	8 µM	64 µM	16 µM	128 µM	16 µM	64 µM	2 µM	32 µM	2 µM	64 µM
KKIWKKWIKKIIKI-NH2 [KWI-14]	–	–	4(4) μM	4(4) μM	4 µM	8 µM	2(2) μM	2(2) μM	1 µM	2 µM	0.5 µM	1 µM
RRIIRRIWRW-NH2 [RIW-10]	–	–	8 µM	16 µM	8 µM	16 µM	16 µM	32 µM	2 µM	4 µM	2 µM	8 µM
RRIWRRWIRI-NH2 [RWI-10]	–	–	2 µM	4 µM	8 µM	16 µM	16 µM	32 µM	1 µM	4 µM	2 µM	8 µM
WIKKIWKKIIKEIK-NH2 [WIKE-14]	–	–	4 µM	64 µM	16 µM	128 µM	8 µM	32 µM	2 µM	8 µM	4 µM	8 µM
WIKKIWKKIIKKIK-NH2 [WIK-14]	–	–	4(4) μM	4(4) μM	2((2) μM	2((2) μM	2(2) μM	2(2) μM	1(1) μM	1(1) μM	0.5 µM	1 µM
WIKKIWKKIK-NH2 [WIK-10]	–	–	8 µM	32 µM	8 µM	64 µM	8 µM	32 µM	2 µM	8 µM	2 µM	16 µM
WIRRIWRRIR-NH2 [WIR-10]	–	–	2 µM	4 µM	4 µM	8 µM	4 µM	8 µM	1(1) μM	1(1) μM	2(2) μM	2(2) μM
